Data taken from patent publication US20050215607A1, “Drug composition for prevention or inhibition of advance of diabetic complication” (priority 2002, published 2005).
Where a name gives a salt, the structure may show the parent alone.

What was measured:
[1] = Disposition (half-life) of mitiglinide; settings: human, in vivo, oral; single dose of 5 mg and more
[2] = Required single dose to reduce HbA1C value; format: in vivo; settings: as a single dose
[3] = system: type II diabetic patients; test: Clinical study in type II diabetic patients; format: in vivo, human; settings: for Change in HbA1C value, mean value: three times a day just before meals; for Change in 1 hour value of postprandial plasma glucose (PPG), mean value / Change in 2 hour value of postprandial plasma glucose (PPG), mean value / Change in early morning fasting plasma glucose (FPG), mean: at the final evaluation
Experimental: Using the pharmaceutical composition described in Example 1, a clinical study was conducted in type II diabetic patients under the following conditions.
Test drug and Mode of administration: Every patient orally administered either of a combination selected from the following combination groups (one tablet from each) three times a day just before meals (within 5 minutes before starting meal): • The present invention group: (1)+(4) • Positive control group: (2)+(3) • Positive control group: (3)+(4) • (1) a tablet comprising 10 mg of mitiglinide calcium salt hydrate; • (2) a tablet comprising 0.2 mg of voglibose (chemical name: (+)-1L-[1(OH),2,4,5/3]-5-[2-hydroxy-1-(hydroxymethyl)-ethyl]amino-1-C-(hydroxymethyl)-1,2,3,4-cyclohexaneterol); • (3) a placebo tablet of mitiglinide calcium salt hydrate not containing any active ingredient; and • (4) a placebo tablet of voglibose not containing any active ingredient. • Treatment period: 12 weeks
Observation item: The following items were measured before administration, at a certain fixed time after the start of administration and at the completion of administration, and their changes were calculated, or the frequency of adverse drug reactions was calculated, and then evaluated.

healthy male adults = test: Clinical study on administration timing; format: in vivo, human
Experimental: Administration timing before taking a meal was evaluated in healthy male adults. Used test drugs were a tablet comprising 10 mg of mitiglinide calcium salt hydrate and a placebo tablet. The tablet comprising 10 mg of mitiglinide calcium salt hydrate was administered at 0.5 min, 5 min, 10 min or 30 min before starting meal (Positive group), while the placebo tablet was administered at 0.5 min before starting meal. After administration, blood glucose levels were measured at starting meal and evaluated.

[4] = in comparison with voglibose and placebo

O=C(O)[C@H](CC(=O)N1C[C@H]2CCCC[C@H]2C1)Cc1ccccc1 [mitiglinide]
half-life [1]: ~1.5 h
required dosage to reduce HbA1C value significantly [2]: ≥ 5 mg

OCC(CO)N[C@H]1C[C@](O)(CO)[C@@H](O)[C@H](O)[C@H]1O [voglibose, (+)-1L-[1(OH),2,4,5/3]-5-[2-hydroxy-1-(hydroxymethyl)-ethyl]amino-1-C-(hydroxymethyl)-1,2,3,4-cyclohexaneterol, reference compound]
Change in HbA1C value, mean value ([3]; 4 weeks): −0.14%
Change in HbA1C value, mean value ([3]; 8 weeks): −0.14%
Change in HbA1C value, mean value ([3]; 12 weeks): −0.11%
Change in 1 hour value of postprandial plasma glucose (PPG), mean value ([3]; treatment period 12 weeks): -24.8 mg/dL
Change in 2 hour value of postprandial plasma glucose (PPG), mean value ([3]; treatment period 12 weeks): -5.1 mg/dL
Change in early morning fasting plasma glucose (FPG), mean ([3]; treatment period 12 weeks): 0.5 mg/dL
HbA1C value (result in words) ([3]; in comparison with placebo): significantly lowered
Change in HbA1C value, mean value ([3]; the final evaluation): −0.11%
Frequency of adverse drug reactions: gastrointestinal disorder ([3]; treatment period 12 weeks): 24.5%
Frequency of adverse drug reactions: hypoglycemic symptoms ([3]; treatment period 12 weeks): 4.5%

O=C(O)[C@H](CC(=O)N1C[C@H]2CCCC[C@H]2C1)Cc1ccccc1 [Mitiglinide calcium salt hydrate, (+)-monocalcium bis[(2S, 3a, 7a-cis)-α-benzylhexahydro-γ-oxo-2-isoindolinebutyrate] dihydrate]
Change in HbA1C value, mean value ([3]; 4 weeks): −0.30%
Change in HbA1C value, mean value ([3]; 8 weeks): −0.46%
Change in HbA1C value, mean value ([3]; 12 weeks): −0.46%
HbA1C value (result in words) ([3]; after 4 weeks after the start of administration, in comparison with voglibose and placebo): significantly lowered
Change in 1 hour value of postprandial plasma glucose (PPG), mean value ([3]; treatment period 12 weeks): -53.1 mg/dL
Change in 2 hour value of postprandial plasma glucose (PPG), mean value ([3]; treatment period 12 weeks): -50.1 mg/dL
Change in early morning fasting plasma glucose (FPG), mean ([3]; treatment period 12 weeks): -8.0 mg/dL
frequencies of hypoglycemic symptoms and gastrointestinal disorders (result in words) ([3]; human, in vivo): decreased
Frequency of adverse drug reactions: gastrointestinal disorder ([3]; human, in vivo, 12 weeks): 17.6%
Frequency of adverse drug reactions: hypoglycemic symptoms ([3]; human, in vivo, 12 weeks): 2.0%
1 hour and 2 hour values of postprandial plasma glucose (PPG) (result in words) [3, 4]: significantly lowered
early morning fasting plasma glucose (FPG) (result in words) [3, 4]: significantly lowered
Change in HbA1C value, mean value ([3]; the final evaluation): −0.44%
Blood glucose level at starting meal, mean (healthy male adults; 10 mg tablet administered 0.5 min before starting meal): 87.0 mg/dL
Blood glucose level at starting meal, mean (healthy male adults; 10 mg tablet administered 5 min before starting meal): 83.8 mg/dL
Blood glucose level at starting meal, mean (healthy male adults; 10 mg tablet administered 10 min before starting meal): 84.2 mg/dL
Blood glucose level at starting meal, mean (healthy male adults; 10 mg tablet administered 30 min before starting meal): 55.7 mg/dL
blood glucose level at starting meal (result in words) (healthy male adults; administered at 30 minutes before starting meal): notably declined
blood glucose level at starting meal (result in words) (healthy male adults; administered within 10 minutes before starting meal): able to maintain good blood glucose level
